{
  "source": "ChEMBL document CHEMBL3856190",
  "about": "“Novel spirothiazamenthane inhibitors of the influenza A M2 proton channel” (Eur J Med Chem, 2016)",
  "key": {"[1]": {"tested_on": "MDCK", "assay": "Antiviral activity against amantadine-resistant Influenza A virus A/Puerto Rico/8/34 expressing M2 proton channel S31N mutant infected in MDCK cells assessed as inhibition of viral replication at 0.001 to 100 uM measured after 10 hrs by miniplaque assay", "assay_type": "functional, cell-based", "conditions": "Influenza A virus (A/Puerto Rico/8/1934(H1N1))"}, "[2]": {"tested_on": "MDCK", "assay": "Antiviral activity against amantadine-resistant Influenza A virus A/Puerto Rico/8/34 expressing M2 proton channel V27A mutant infected in MDCK cells assessed as inhibition of viral replication at 100 uM measured after 10 hrs by miniplaque assay", "assay_type": "functional, cell-based", "conditions": "Influenza A virus (A/Puerto Rico/8/1934(H1N1))"}},
  "note": "Calls of active or inactive are those of the source. The calls are words filed in the database; no cut-off is given here.",
  "data": [
    {"compound": "CC(C)CCN1CCN(CCNC2=NC(C)(C)[C@]3(CC[C@H](C)CC3)S2)CC1", "values": [
      {"measurement": "inhibition", "setting": "[1]", "result": "Active"},
      {"measurement": "inhibition", "setting": "[2]", "result": "Active"}
    ]},
    {"compound": "CCCCCCCCN1CCN(CCNC2=NC(C)(C)[C@]3(CC[C@H](C)CC3)S2)CC1", "values": [
      {"measurement": "inhibition", "setting": "[1]", "result": "Active"}
    ]},
    {"compound": "CN(C)CCN1CCN(CCNC2=NC(C)(C)[C@]3(CC[C@H](C)CC3)S2)CC1", "values": [
      {"measurement": "inhibition", "setting": "[1]", "result": "Active"}
    ]},
    {"compound": "CN1CCN(CCNC2=NC(C)(C)[C@]3(CC[C@H](C)CC3)S2)CC1", "values": [
      {"measurement": "inhibition", "setting": "[1]", "result": "Active"}
    ]},
    {"compound": "CCOCCN1CCN(CCNC2=NC(C)(C)[C@]3(CC[C@H](C)CC3)S2)CC1", "values": [
      {"measurement": "inhibition", "setting": "[1]", "result": "Active"},
      {"measurement": "inhibition", "setting": "[2]", "result": "Active"}
    ]},
    {"compound": "CCCCN1CCN(CCNC2=NC(C)(C)[C@]3(CC[C@H](C)CC3)S2)CC1", "values": [
      {"measurement": "inhibition", "setting": "[1]", "result": "Active"},
      {"measurement": "inhibition", "setting": "[2]", "result": "Active"}
    ]},
    {"compound": "CC1(C)N=C(NCCN2CCN(Cc3ccccc3)CC2)S[C@]12CC[C@@H](C)CC2", "values": [
      {"measurement": "inhibition", "setting": "[1]", "result": "Active"},
      {"measurement": "inhibition", "setting": "[2]", "result": "Active"}
    ]}
  ]
}
